Reference: patent US8614301B2, “Methods of treating cancer using anti CD24 antibodies” (priority 2007, dated 2013)
Residues, ends and D or L forms follow the SMILES beside them. *: point of attachment. Cbz = O=C(OCc1ccccc1)*

T1: CD24 in HT29 cells (Homo sapiens, UniProt P25063)
T1 construct: endogenous in cells; host or cells: HT29 human colorectal cancer cells (ATCC)
T1 sequence (P25063 27-59 limits assumed): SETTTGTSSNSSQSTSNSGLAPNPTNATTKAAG

T2: human CD24 polypeptide (human) (UniProt P25063)
T2 sequence (looked up): T1 sequence (P25063 27-59 limits assumed)

B1: SWA11 anti-CD24 monoclonal antibody (antibody, human IgG1, kappa, V domains shown)
V domain 1: SDVHLQESGPDLVKPSQSLSLTCTVTGYSITSGYTWHWIRQFPGNTVEWMGYIQYTGSTRYNPALRGRLSISRDTSKNQFFLQLISVTTADTGTYFCARGTTASFDYWGQGTTLTVAS
V domain 2: DIVMSQSPSSLNVSVGEKVTMRCRSSQSLLYSSDQKNYLTWYQQKPGQSPKLLISWASTRASGVPDRFTGSGSGTDFTLTISSVKAEDLGVYYCQQYFIYPLTFGVGTKLGLKR

What was measured:
HT29 cells = assay: Combined anti-CD24 mAb and chemotherapy, methylene-blue viability assay; format: cell-based, human; conditions: simultaneous SWA11, 72 hours
Experimental: Experiments were performed in duplicates or repeated twice. The Y axes stand for cell viability quantified via methylene-blue assay.
The killing effect of the anti-CD24 antibodies and the chemotherapies was assessed, in-vitro, using a methylene-blue assay: 2.5×10^3 cells/well were plated onto 96-well in 0.2 ml complete medium. On the morrow the media were refreshed with the addition of the indicated reagents, held in incubation for 72 hours. The cells were washed with PBS and then fixed with a 0.2 mL 4% formaldehyde solution for 2 hours at room temperature. The cells were then washed with PBS, incubated with 0.15 mL ribonuclease A (3 μg/mL) for 30 minutes at room temperature, equilibrated with 0.2 mL sodium borate (0.1M, pH 8.5), and stained with 0.2 mL methylene blue (0.5%) for 10 minutes at room temperature. Finally, the cells were thoroughly washed with tap water and cell-bound dye was eluted with 0.2 mL HCl (0.1M). Color intensity was read in an enzyme-linked immunosorbent assay plate reader at 595 nm. SWA11 served as the anti-CD24 antibody.

CD24 in HT29 cells = target: T1, CD24 in HT29 cells; assay: Western blot of CD24 degradation in mAb-treated cells; format: cell-based; conditions: up to 6 hours
Experimental: FIGS. 5A and 5B are photos showing immunodetection on Western blot of CD24 degradation in anti-CD24 mAb treated cancer cells. HT29 (FIG. 5A) and Colo357 (FIG. 5B) cells were exposed to monoclonal anti-CD24 antibody SWA11 for the indicated periods of time, cells harvested and protein extracted. 20 μg of cell proteins from each sample were separated by SDS-PAGE, blotted onto membrane and reacted with anti-CD24 (SWA11 mAb, CD24) or polyclonal anti-actin (1-19, Santa Cruz Biotechnology, Santa Cruz Calif.). Visualization was effected by anti-mouse and anti-goat (respectively) second antibodies. Note the degradation of CD24 apparent already at 2 hours treatment in both cell lines, with no effect on actin levels;
FIG. 6 is a photo showing the lysosomal mediation of CD24 degradation in HT29 cancer cells treated with anti-CD24 mAb. […]
Exponentially growing cells were harvested and protein concentrations were determined using the Bio-Rad protein assay kit (Bio-Rad, Hercules, Calif.). […]
In order to assess whether CD24 proteolysis is involved in the inhibition of CD24-expressing cancer cell growth by anti-CD24 antibodies, protein levels of CD24 and housekeeping gene product actin in mAb-treated and control cells were analyzed by SDS-PAGE and Western blotting with specific antibodies.

[1] = target: T2, human CD24 polypeptide (human); assay: cell-based or functional assay
[2] = target: T2, human CD24 polypeptide (human); assay: cell-based or functional assay; remark: listed apart in the source

| Molecule | cytotoxic effect of chemotherapeutic agent when combined with SWA11 (HT29 cells) | also measured |
| --- | --- | --- |
| COc1cccc2c1C(=O)c1c(O)c3c(c(O)c1C2=O)C[C@@](O)(C(=O)CO)C[C@@H]3O[C@H]1C[C@H](N)[C@H](O)[C@H](C)O1 [Doxorubicin] | enhanced the cytotoxic effect | – |
| CCN(CC)CCCC(C)Nc1ccnc2cc(Cl)ccc12 (centres unmarked) [chloroquine] | – | effect on anti-CD24 mAb induced decrease in CD24 protein level (CD24 in HT29 cells; 0.5 mM, lysosomal inhibitor, added 2 hours before mAb): prevented the decrease in CD24 protein level |
| CC(=O)O[C@H]1C(=O)[C@@]2(C)[C@H]([C@H](OC(=O)c3ccccc3)[C@]3(O)C[C@H](OC(=O)[C@H](O)[C@@H](NC(=O)c4ccccc4)c4ccccc4)C(C)=C1C3(C)C)[C@]1(OC(C)=O)CO[C@@H]1C[C@@H]2O [Paclitaxel] | enhanced the cytotoxic effect | – |
| O=c1[nH]cc(F)c(=O)[nH]1 [5-florouracil] | enhanced the cytotoxic effect | – |
| CC(C)C[C@@H](C=O)NC(=O)[C@H](CC(C)C)NC(=O)[C@H](CC(C)C)NC(=O)OCc1ccccc1 [MG132] (Cbz-Leu-Leu-Leu-aldehyde) | – | effect on anti-CD24 mAb induced CD24 degradation (CD24 in HT29 cells; 0.1 mM, proteasomal inhibitor, added prior to mAb): had no effect |
| SWA11-ZZ-PE38 immunoconjugate | – | cytotoxity (LD50) [1]: 32 ng/mL |
| O=C1[O][Pt]2([NH][C@@H]3CCCC[C@H]3[NH]2)[O]C1=O [Oxaloplatin] | enhanced the cytotoxic effect | – |
| B1 | – | growth inhibition (cell viability, methylene blue) [2]: < 90% |
